Results reported in EP4464708A1, “NEW CONTRAST AGENTS FOR USE IN DIAGNOSTIC IMAGING” (Bayer Aktiengesellschaft, priority 2023, dated 2024).

Assay: Relaxivity measurements at 1.4 T
Type: physicochemical
Conditions: 1.41 T (60 MHz), 37°C, normalized to Mn
Method: T1 and T2 relaxation time were measured at 60 MHz (1.41 T) and 37°C using a Bruker mq60 minispec contrast agent analyzer. Manganese containing chelates were dissolved in different media at and each relaxivity measurement was performed using three different Mn concentrations. Measurement of r1 and r2 relaxivities were performed using concentrations of 0, 0.25, 0.5 and 1mM Mn in water and human plasma containing heparin as anticoagulant. The relaxivities ri (where i=1, 2) were calculated based on the measured relaxation rates Ri in water and plasma: ri = (Ri−Ri(0))/CMn [formula] where Ri(0) represent the relaxation rate of the respective solvent and CMn the concentration of the compound normalized to Manganese. The Manganese concentrations of the investigated solutions were verified by Inductively Coupled Plasma Mass Spectrometry (ICP-MS Agilent 7500a, Waldbronn, Germany). Table 1: Relaxivities of investigated compound in water and human plasma at 1.41 T. All values are measured at 37°C and normalized to Mn and given in L mmol-1 s-1.

r1 (human plasma (heparin as anticoagulant)): 6.4 L mM^-1s^-1
r1 (water): 5.0 L mM^-1s^-1
SMILES: O=C(CCC(C(=O)[O-])N1CCOCCN(C(CCC(=O)NC[C@H](O)[C@@H](O)[C@H](O)[C@H](O)CO)C(=O)[O-])Cc2cccc(n2)C1)NC[C@H](O)[C@@H](O)[C@H](O)[C@H](O)CO.[Mn+2] (stereo partly drawn) [Example 2, manganese(^2+) 2-[9-(1-carboxylato-4-oxo-4-{[(2S,3R,4R,5R)-2,3,4,5,6-pentahydroxyhexyl]amino}butyl)-6-oxa-3,9,15-triazabicyclo[9.3.1]pentadeca-1(15),11,13-trien-3-yl]-5-oxo-5-{[(2S,3R,4R,5R)-2,3,4,5,6-pentahydroxyhexyl]amino}pentanoate]
